In patent publication US11866430B2, “Naphthyridinone compounds useful as T cell activators” (priority 2018, dated 2024):
pIC50: −log10 of the molar value.

Key:
human DGKζ [1] = molecular target: T1, human DGKζ (Homo sapiens (Human), UniProt Q13574); assay: DGKζ assay (detergent/lipid micelle substrate); type: biochemical; settings: detergent/lipid micelle substrate; read-out: DGKζ IC50
How it was run: (§1)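 Full-length human DGKζ (and DGKα), C-terminal His-tagged, Sf9-expressed, with phosphatidylserine/DAG micelles in 50 mM octyl glucoside; buffer 50 mM MOPS pH 7.5, 100 mM NaCl, 10 mM MgCl2, 1 μM CaCl2, 1 mM DTT.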

human DGKζ [2] = molecular target: T1, human DGKζ; assay: DGKζ LIPGLO assay (extruded liposome substrate); type: biochemical; settings: extruded liposome substrate; read-out: DGKζ LIPGLO IC50
How it was run: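 Sf9-derived DGKζ was premixed 10 min with PC/DAG/PS liposomes (100 nm extruded) in MOPS pH 7.5 buffer containing NaCl, MgCl2, CaCl2 and DTT.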

human DGKα [3] = molecular target: T2, human DGKα (Homo sapiens (Human), UniProt P23743); assay: biochemical; settings: detergent/lipid micelle substrate; read-out: DGKα IC50
How it was run: as §1

[4] = tested on: pre-activated CD4 T cells and Raji cells; assay: Raji CD4 T Cell IL2 Assay; type: cell-based; settings: Homo sapiens, Raji
human DGKα [5] = molecular target: T2, human DGKα; assay: DGKα LIPGLO assay (extruded liposome substrate); type: biochemical
How it was run: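 Human full-length DGKα, His-tagged and produced in Sf9 cells, assayed at 20 nM (4× stock) on extruded liposomes of PS, 0.25 mM DAG and 2.75 mM PC, preincubated 10 min. Reaction started with 300 μM ATP (stock) and ran 1 h in MOPS pH 7.5/MgCl2/CaCl2/DTT buffer.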

T1 sequence (Q13574 other isoform, or with tags, fused parts or gaps): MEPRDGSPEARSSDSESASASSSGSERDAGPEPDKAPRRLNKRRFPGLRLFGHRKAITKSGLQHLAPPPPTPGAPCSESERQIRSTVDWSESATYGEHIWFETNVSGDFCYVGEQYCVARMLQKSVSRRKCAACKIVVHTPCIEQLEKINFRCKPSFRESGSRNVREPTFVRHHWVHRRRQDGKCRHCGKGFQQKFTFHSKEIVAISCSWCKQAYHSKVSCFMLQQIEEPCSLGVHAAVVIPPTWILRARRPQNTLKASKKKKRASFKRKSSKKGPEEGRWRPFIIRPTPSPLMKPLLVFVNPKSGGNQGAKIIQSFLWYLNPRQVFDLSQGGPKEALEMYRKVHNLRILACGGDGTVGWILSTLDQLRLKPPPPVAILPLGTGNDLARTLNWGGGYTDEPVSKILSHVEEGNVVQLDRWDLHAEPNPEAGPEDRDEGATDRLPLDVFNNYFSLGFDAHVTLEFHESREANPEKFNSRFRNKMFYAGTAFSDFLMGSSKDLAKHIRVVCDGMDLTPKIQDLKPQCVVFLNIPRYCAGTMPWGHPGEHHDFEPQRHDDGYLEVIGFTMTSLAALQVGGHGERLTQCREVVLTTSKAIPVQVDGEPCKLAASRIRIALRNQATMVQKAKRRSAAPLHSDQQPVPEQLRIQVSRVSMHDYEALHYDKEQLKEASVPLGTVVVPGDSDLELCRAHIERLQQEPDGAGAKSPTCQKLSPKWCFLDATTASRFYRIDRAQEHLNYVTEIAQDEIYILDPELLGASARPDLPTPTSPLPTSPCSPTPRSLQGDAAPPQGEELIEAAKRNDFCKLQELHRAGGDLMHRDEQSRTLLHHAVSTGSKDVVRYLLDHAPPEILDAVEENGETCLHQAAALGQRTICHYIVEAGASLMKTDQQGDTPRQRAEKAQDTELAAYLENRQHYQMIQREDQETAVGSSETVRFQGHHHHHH
T2 sequence (P23743 other isoform, or with tags, fused parts or gaps): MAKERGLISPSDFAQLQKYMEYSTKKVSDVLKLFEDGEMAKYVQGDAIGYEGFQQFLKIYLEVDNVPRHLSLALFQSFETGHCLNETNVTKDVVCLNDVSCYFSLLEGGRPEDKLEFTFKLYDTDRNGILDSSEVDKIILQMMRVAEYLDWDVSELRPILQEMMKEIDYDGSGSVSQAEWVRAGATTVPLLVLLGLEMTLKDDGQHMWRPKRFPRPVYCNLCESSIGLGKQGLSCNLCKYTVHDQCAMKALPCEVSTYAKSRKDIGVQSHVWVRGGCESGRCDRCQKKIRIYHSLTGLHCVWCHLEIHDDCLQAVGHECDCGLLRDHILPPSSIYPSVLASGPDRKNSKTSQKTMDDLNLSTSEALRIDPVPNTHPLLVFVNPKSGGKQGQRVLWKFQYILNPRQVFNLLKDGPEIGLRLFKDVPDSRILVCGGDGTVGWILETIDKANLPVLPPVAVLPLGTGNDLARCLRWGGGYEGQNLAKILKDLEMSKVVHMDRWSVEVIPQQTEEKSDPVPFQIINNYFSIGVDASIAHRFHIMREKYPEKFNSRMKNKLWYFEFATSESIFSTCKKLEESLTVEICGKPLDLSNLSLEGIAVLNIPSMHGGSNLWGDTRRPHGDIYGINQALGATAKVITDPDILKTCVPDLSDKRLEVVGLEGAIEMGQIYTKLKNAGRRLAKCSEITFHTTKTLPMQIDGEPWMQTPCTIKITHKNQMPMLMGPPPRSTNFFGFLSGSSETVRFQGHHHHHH

Compound	pIC50 (human DGKζ [1])	pIC50 (human DGKζ [2])	pIC50 (human DGKα [3])	pIC50 [4]	pIC50 (human DGKα [5])
Cn1c(=O)c(C(=O)C(F)(F)F)c(N2CCN(C(c3ccc(F)cc3)c3ccc(F)cc3)CC2)c2ncccc21 [Example 227, 4-(4-(bis(4-fluorophenyl)methyl)piperazin-1-yl)-1-methyl-3-(2,2,2-trifluoroacetyl)-1,5-naphthyridin-2(1H)-one]	< 3.62	4.96	< 3.62	5.82	3.64
C#CCn1c(=O)c(C#N)c(N2CCN(C(c3ccc(F)cc3)c3ccc(F)cc3)CC2)c2nc(Br)ccc21 [Example 229, 4-(4-(bis(4-fluorophenyl)methyl)piperazin-1-yl)-6-bromo-2-oxo-1-(prop-2-yn-1-yl)-1,2-dihydro-1,5-naphthyridine-3-carbonitrile]	4.85	4.96	4.85	6.92	< 3.62
Cc1ccc2c(n1)c(N1CCN(C(c3ccc(F)cc3)c3ccc(F)cc3)CC1)c(Cl)c(=O)n2C [Example 233, 4-(4-(bis(4-fluorophenyl)methyl)piperazin-1-yl)-3-chloro-1,6-dimethyl-1,5-naphthyridin-2(1H)-one]	< 3.62	5.18	5.08	6.32	5.52
Cc1ccc2c(n1)c(N1CCN(C(c3ccc(F)cc3)c3ccc(F)cc3)CC1)c(Br)c(=O)n2C [Example 239, 4-(4-(bis(4-fluorophenyl)methyl)piperazin-1-yl)-3-bromo-1,6-dimethyl-1,5-naphthyridin-2(1H)-one]	< 3.62	4.29	4.96	5.44	5.00
Cn1c(=O)c(C#N)c(N2CCN(Cc3c(O)cccc3Br)CC2)c2nc(Cl)ccc21 [Example 258, 4-{4-[(2-bromo-6-hydroxyphenyl)methyl]piperazin-1-yl}-6-chloro-1-methyl-2-oxo-1,2-dihydro-1,5-naphthyridine-3-carbonitrile]	4.59	5.28	6.37	8.28	5.80
Cc1cccc(O)c1CN1CCN(c2c(C#N)c(=O)n(C)c3ccc(Br)nc23)CC1 [Example 259, 6-bromo-4-{4-[(2-hydroxy-6-methylphenyl)methyl]piperazin-yl}-1-methyl-2-oxo-1,2-dihydro-1,5-naphthyridine-3-carbonitrile]	4.26	5.40	6.38	7.80	6.31
Cn1c(=O)c(C#N)c(N2CCN(Cc3ccc(C(C)(C)C)cc3O)CC2)c2nc(Cl)ccc21 [Example 261, 4-{4-[(4-tert-butyl-2-hydroxyphenyl)methyl]piperazin-1-yl}-6-chloro-1-methyl-2-oxo-1,2-dihydro-1,5-naphthyridine-3-carbonitrile]	< 3.62	5.00	6.37	7.68	6.15
Cn1c(=O)c(C#N)c(N2CCN(Cc3ccc(Br)cc3O)CC2)c2nc(C#N)ccc21 [Example 263, 8-{4-[(4-bromo-2-hydroxyphenyl)methyl]piperazin-1-yl}-5-methyl-6-oxo-5,6-dihydro-1,5-naphthyridine-2,7-dicarbonitrile]	4.85	5.28	7.08	7.46	6.66
Cn1c(=O)c(C#N)c(N2CCN(Cc3ccc(Cl)cc3O)CC2)c2nc(C#N)ccc21 [Example 269, 8-{4-[(4-chloro-2-hydroxyphenyl)methyl]piperazin-1-yl}-5-methyl-6-oxo-5,6-dihydro-1,5-naphthyridine-2,7-dicarbonitrile]	4.59	5.55	7.28	7.24	6.68
Cn1c(=O)c(C#N)c(N2CCN(Cc3ccccc3Cl)CC2)c2nc(Cl)ccc21 [Example 272, 6-chloro-4-{4-[(2-chlorophenyl)methyl]piperazin-1-yl}-1-methyl-2-oxo-1,2-dihydro-1,5-naphthyridine-3-carbonitrile]	< 3.62	5.00	5.82	7.19	5.64
Cc1ccc(CN2CCN(c3c(C#N)c(=O)n(C)c4ccc(Cl)nc34)CC2)c(O)c1 [Example 273, 6-chloro-4-{4-[(2-hydroxy-4-methylphenyl)methyl]piperazin-1-yl}-1-methyl-2-oxo-1,2-dihydro-1,5-naphthyridine-3-carbonitrile]	4.16	5.11	7.74	7.19	7.09
COc1c(F)cccc1CN1CCN(c2c(C#N)c(=O)n(C)c3ccc(Cl)nc23)CC1 [Example 274, 6-chloro-4-{4-[(3-fluoro-2-methoxyphenyl)methyl]piperazin-1-yl}-1-methyl-2-oxo-1,2-dihydro-1,5-naphthyridine-3-carbonitrile]	4.52	5.27	6.17	7.14	5.80
Cn1c(=O)c(C#N)c(N2CCN(Cc3cc(Br)ccc3O)CC2)c2nc(Cl)ccc21 [Example 275, 4-{4-[(5-bromo-2-hydroxyphenyl)methyl]piperazin-1-yl}-6-chloro-1-methyl-2-oxo-1,2-dihydro-1,5-naphthyridine-3-carbonitrile]	4.24	5.00	6.52	7.14	6.11
Cc1ccc2c(n1)c(N1CCN(Cc3cc(Br)ccc3O)CC1)c(C#N)c(=O)n2C [Example 277, 4-{4-[(5-bromo-2-hydroxyphenyl)methyl]piperazin-1-yl}-1,6-dimethyl-2-oxo-1,2-dihydro-1,5-naphthyridine-3-carbonitrile]	4.35	4.89	6.12	7.10	5.77
COc1ccc(CN2CCN(c3c(C#N)c(=O)n(C)c4ccc(Cl)nc34)CC2)cc1F [Example 279, 6-chloro-4-{4-[(3-fluoro-4-methoxyphenyl)methyl]piperazin-1-yl}-1-methyl-2-oxo-1,2-dihydro-1,5-naphthyridine-3-carbonitrile]	4.25	5.24	6.42	7.04	6.09
Cc1cccc(CN2CCN(c3c(C#N)c(=O)n(C)c4ccc(Cl)nc34)CC2)c1F [Example 281, 6-chloro-4-{4-[(2-fluoro-3-methylphenyl)methyl]piperazin-1-yl}-1-methyl-2-oxo-1,2-dihydro-1,5-naphthyridine-3-carbonitrile]	4.31	5.00	6.41	7.03	5.70
Cc1ccc(O)c(CN2CCN(c3c(C#N)c(=O)n(C)c4ccc(Cl)nc34)CC2)c1 [Example 283, 6-chloro-4-{4-[(2-hydroxy-5-methylphenyl)methyl]piperazin-1-yl}-1-methyl-2-oxo-1,2-dihydro-1,5-naphthyridine-3-carbonitrile]	4.57	5.52	6.92	7.03	6.68
Cn1c(=O)c(C#N)c(N2CCN(Cc3ccc(F)cc3Cl)CC2)c2nc(Cl)ccc21 [Example 287, 6-chloro-4-{4-[(2-chloro-4-fluorophenyl)methyl]piperazin-1-yl}-1-methyl-2-oxo-1,2-dihydro-1,5-naphthyridine-3-carbonitrile]	< 3.62	4.54	5.68	7.00	4.74
Cn1c(=O)c(C#N)c(N2CCN(Cc3ccc(Cl)cc3O)CC2)c2nc(Cl)ccc21 [Example 288, 6-chloro-4-{4-[(4-chloro-2-hydroxyphenyl)methyl]piperazin-1-yl}-methyl-2-oxo-1,2-dihydro-1,5-naphthyridine-3-carbonitrile]	< 3.62	5.64	7.43	7.00	7.48
Cc1cccc(O)c1CN1CCN(c2c(C#N)c(=O)n(C)c3ccc(Cl)nc23)CC1 [Example 292, 6-chloro-4-{4-[(2-hydroxy-6-methylphenyl)methyl]piperazin-1-yl}-1-methyl-2-oxo-1,2-dihydro-1,5-naphthyridine-3-carbonitrile]	4.60	5.62	6.57	6.96	6.32
Cn1c(=O)c(C#N)c(N2CCN(Cc3cccc(Cl)c3O)CC2)c2nc(Cl)ccc21 [Example 293, 6-chloro-4-{4-[(3-chloro-2-hydroxyphenyl)methyl]piperazin-1-yl}-1-methyl-2-oxo-1,2-dihydro-1,5-naphthyridine-3-carbonitrile]	4.24	5.22	6.57	6.96	6.22
COc1ccc(CN2CCN(c3c(C#N)c(=O)n(C)c4ccc(Br)nc34)CC2)c(O)c1 [Example 295, 6-bromo-4-{4-[(2-hydroxy-4-methoxyphenyl)methyl]piperazin-1-yl}-1-methy-2-oxo-1,2-dihydro-1,5-naphthyridine-3-carbonitrile]	4.26	5.16	6.89	6.85	6.80
